# Assay results published in ChEMBL document CHEMBL5620428, “Discovery of tetrahydroisoquinolineindole derivatives as first dual PRMT5 inhibitors/hnRNP E1 upregulators: Design, synthesis and biological evaluation” (Eur J Med Chem, 2023).
# Calls of active or inactive are those of the source. The rule behind the calls is not given here.
# Tests used:
# [1] = target: Protein arginine N-methyltransferase 5 (Homo sapiens, UniProt O14744); test: Inhibition of PRMT5 (unknown origin)
# [2] = system: A549; test: Antiproliferative activity against human A549 cells assessed as reduction in cell viability at 25 uM incubated for 24 hrs by SRB assay; assay type: functional, cell-based
# [3] = system: MDA-MB-231; test: Antiproliferative activity against human MDA-MB-231 cells assessed as inhibition of cell growth incubated for 24 hrs by SRB assay; assay type: functional, cell-based; settings: MDA-MB-231, 24 h
# [4] = Antiproliferative activity against human L02 cells assessed as inhibition of cell growth incubated for 24 hrs by SRB assay; assay type: toxicity, cell-based
# [5] = system: A549; test: Antiproliferative activity against human A549 cells assessed as inhibition of cell growth incubated for 24 hrs by SRB assay; assay type: functional, cell-based; settings: A549, 24 h
# [6] = system: HepG2; test: Antiproliferative activity against human HepG2 cells assessed as inhibition of cell growth incubated for 24 hrs by SRB assay; assay type: functional, cell-based; settings: HepG2, 24 h
# [7] = system: MCF7; test: Antiproliferative activity against human MCF7 cells assessed as inhibition of cell growth incubated for 24 hrs by SRB assay; assay type: functional, cell-based; settings: MCF7, 24 h
# [8] = AUC (0 to t) in Sprague-Dawley rat at 10 mg/kg, po measured upto 24 hrs by LC-MS/MS analysis; assay type: ADME, organism-based; settings: in vivo
# [9] = Half life in Sprague-Dawley rat at 10 mg/kg, po measured upto 24 hrs by LC-MS/MS analysis; assay type: ADME, organism-based; settings: in vivo
# [10] = Metabolic stability in human liver microsome assessed as half life measured upto 4 hrs in presence of NADPH by LC-MS/MS analysis; assay type: ADME; settings: liver microsomes
# [11] = Metabolic stability in rat liver microsome assessed as half life measured upto 4 hrs in presence of NADPH by LC-MS/MS analysis; assay type: ADME; settings: liver microsomes
# [12] = AUC (0 to infinity) in Sprague-Dawley rat at 10 mg/kg, po measured upto 24 hrs by LC-MS/MS analysis; assay type: ADME, organism-based; settings: in vivo
# [13] = Cmax in Sprague-Dawley rat at 10 mg/kg, po measured upto 24 hrs by LC-MS/MS analysis; assay type: ADME, organism-based; settings: in vivo
# [14] = Tmax in Sprague-Dawley rat at 10 mg/kg, po measured upto 24 hrs by LC-MS/MS analysis; assay type: ADME, organism-based; settings: in vivo
# [15] = system: A549; test: Induction of apoptosis in human A549 cells assessed as nuclear fragmentation incubated for 24 hrs by Hoechst 33342 staining based analysis; assay type: functional, cell-based; settings: dose 12.5-50 µM
# [16] = AUC (0 to t) in Sprague-Dawley rat at 2 mg/kg, iv measured upto 24 hrs by LC-MS/MS analysis; assay type: ADME, organism-based; settings: in vivo
# [17] = AUC (0 to infinity) in Sprague-Dawley rat at 2 mg/kg, iv measured upto 24 hrs by LC-MS/MS analysis; assay type: ADME, organism-based; settings: in vivo
# [18] = system: A549; test: Induction of apoptosis in human A549 cells at 2.5 to 50 uM incubated for 24 hrs by Hoechst 33342 staining based analysis; assay type: functional; settings: dose 2.5-50 µM
# [19] = Clearance in Sprague-Dawley rat at 2 mg/kg, iv measured upto 24 hrs by LC-MS/MS analysis; assay type: ADME, organism-based; settings: in vivo
# [20] = system: A549; test: Inhibition of cell migration human A549 cells transfected with hnRNP E1 siRNA incubated upto 12 hrs by wound healing assay; assay type: functional, cell-based
# [21] = Oral bioavailability in Sprague-Dawley rat at 10 mg/kg measured upto 24 hrs by LC-MS/MS analysis; assay type: ADME, organism-based; settings: in vivo
# [22] = system: A549; test: Induction of apoptosis in human A549 cells transfected in hnRNP E1 siRNA assessed as reduction in cell number incubated for 24 hrs by Hoechst 33258 staining based analysis; assay type: functional
# [23] = target: T1, Histone-arginine methyltransferase CARM1 (Homo sapiens, UniProt Q86X55); test: Inhibition of PRMT4 (unknown origin)
# T1 sequence (Q86X55 whole entry): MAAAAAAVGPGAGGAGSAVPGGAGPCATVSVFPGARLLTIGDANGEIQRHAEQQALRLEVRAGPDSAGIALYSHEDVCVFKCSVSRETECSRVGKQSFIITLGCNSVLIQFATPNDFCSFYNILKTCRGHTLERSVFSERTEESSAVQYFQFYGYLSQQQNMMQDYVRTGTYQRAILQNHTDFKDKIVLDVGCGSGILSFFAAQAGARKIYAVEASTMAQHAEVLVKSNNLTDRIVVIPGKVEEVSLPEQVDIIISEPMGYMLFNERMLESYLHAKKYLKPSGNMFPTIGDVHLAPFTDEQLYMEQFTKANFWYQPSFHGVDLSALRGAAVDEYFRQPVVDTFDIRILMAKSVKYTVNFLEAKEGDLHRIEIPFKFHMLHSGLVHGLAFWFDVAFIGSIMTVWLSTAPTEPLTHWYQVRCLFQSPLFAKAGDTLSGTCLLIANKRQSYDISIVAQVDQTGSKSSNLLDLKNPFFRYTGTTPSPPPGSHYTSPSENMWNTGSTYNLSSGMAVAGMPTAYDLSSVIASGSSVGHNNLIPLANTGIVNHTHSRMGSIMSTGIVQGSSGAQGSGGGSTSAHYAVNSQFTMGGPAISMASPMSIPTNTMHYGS
# [24] = system: A549; test: Anticancer activity against human A549 cells assessed as decrease in cell number incubated for 24 hrs by SRB assay; assay type: functional, cell-based; settings: dose 12.5-50 µM
# [25] = Volume of distribution in Sprague-Dawley rat at 2 mg/kg, iv measured upto 24 hrs by LC-MS/MS analysis; assay type: ADME, organism-based; settings: in vivo
# [26] = Half life in Sprague-Dawley rat at 2 mg/kg, iv measured upto 24 hrs by LC-MS/MS analysis; assay type: ADME, organism-based; settings: in vivo
# [27] = system: A549; test: Inhibition of cell migration human A549 cells assessed as decrease in migration distance at 12.5 to 25 uM incubated upto 12 hrs by wound healing assay; assay type: functional, cell-based; settings: dose 12.5-25 µM
# [28] = target: Protein arginine N-methyltransferase 1 (Homo sapiens, UniProt Q99873); test: Inhibition of PRMT1 (unknown origin)
# Chain of Protein arginine N-methyltransferase 1 (Q99873 whole entry): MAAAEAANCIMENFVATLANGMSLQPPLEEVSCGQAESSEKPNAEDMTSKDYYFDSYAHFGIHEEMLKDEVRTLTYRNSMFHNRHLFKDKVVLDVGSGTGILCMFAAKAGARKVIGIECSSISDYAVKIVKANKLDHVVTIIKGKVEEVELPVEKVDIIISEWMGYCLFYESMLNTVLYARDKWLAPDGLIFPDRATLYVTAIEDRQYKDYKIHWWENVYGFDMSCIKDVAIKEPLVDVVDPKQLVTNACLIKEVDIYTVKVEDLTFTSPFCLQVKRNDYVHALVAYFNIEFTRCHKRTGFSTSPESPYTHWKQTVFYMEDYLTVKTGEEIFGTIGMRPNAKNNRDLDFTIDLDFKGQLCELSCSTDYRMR
# [29] = system: A549; test: Upregulation of hnRNP E1 gene expression in human A549 cells at 12.5 to 50 uM incubated for 24 hrs by Western blot analysis; assay type: functional, cell-based; settings: dose 12.5-50 µM
# [30] = Bioavailability in Sprague-Dawley rat at 2 mg/kg, iv measured upto 24 hrs by LC-MS/MS analysis; assay type: ADME, organism-based; settings: in vivo
# [31] = Cmax in Sprague-Dawley rat at 2 mg/kg, iv measured upto 24 hrs by LC-MS/MS analysis; assay type: ADME, organism-based; settings: in vivo
# Chain of Protein arginine N-methyltransferase 5 (O14744 whole entry): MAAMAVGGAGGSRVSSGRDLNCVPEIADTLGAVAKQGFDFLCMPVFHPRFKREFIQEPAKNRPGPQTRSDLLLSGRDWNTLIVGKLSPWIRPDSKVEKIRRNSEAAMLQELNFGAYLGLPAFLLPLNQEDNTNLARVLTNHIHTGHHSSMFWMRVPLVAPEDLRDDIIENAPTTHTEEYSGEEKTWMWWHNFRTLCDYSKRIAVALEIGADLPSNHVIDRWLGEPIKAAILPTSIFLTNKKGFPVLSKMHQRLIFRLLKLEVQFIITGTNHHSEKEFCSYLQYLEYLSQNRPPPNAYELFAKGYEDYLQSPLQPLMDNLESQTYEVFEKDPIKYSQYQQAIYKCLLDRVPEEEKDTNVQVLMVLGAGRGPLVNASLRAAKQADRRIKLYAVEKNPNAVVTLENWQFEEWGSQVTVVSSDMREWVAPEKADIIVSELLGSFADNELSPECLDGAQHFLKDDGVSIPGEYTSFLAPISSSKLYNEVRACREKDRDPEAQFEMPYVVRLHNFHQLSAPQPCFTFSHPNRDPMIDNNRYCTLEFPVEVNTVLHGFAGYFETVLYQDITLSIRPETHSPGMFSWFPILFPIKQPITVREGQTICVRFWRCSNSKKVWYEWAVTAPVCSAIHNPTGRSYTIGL
smiles,measurement,setting,value
O[C@H](CN1CCc2ccccc2C1)Cn1ccc2cc(F)ccc21,IC50,[1],18.8 µM
same,Activity,[2],Active
COc1cc2c(cc1OC)CN(C[C@@H](O)Cn1ccc3ccc(Br)cc31)CC2,IC50,[1],61.4 µM
same,Activity,[2],Active
Cc1ccc2ccn(C[C@H](O)CN3CCc4ccccc4C3)c2c1,IC50,[1],6.4 µM
same,Activity,[2],Active
Cc1cn(C[C@H](O)CN2CCc3ccccc3C2)c2ccccc12,IC50,[1],3.22 µM
same,Activity,[2],Active
N#Cc1ccc2c(ccn2C[C@H](O)CN2CCc3ccccc3C2)c1,IC50,[1],12 µM
same,Activity,[2],Active
N#Cc1ccc2ccn(C[C@H](O)CN3CCc4ccccc4C3)c2c1,IC50,[1],1.21 µM
same,Activity,[2],Active
O[C@H](CN1CCc2ccccc2C1)Cn1ccc2ccc(Br)cc21,IC50,[3],60.1 µM
same,IC50,[1],0.38 µM
same,IC50 at 24 h,[4],> 100 µM
same,IC50,[5],29.5 µM
same,IC50,[6],16.8 µM
same,IC50,[7],25.2 µM
same,Activity,[2],Active
COc1ccc2c(ccn2C[C@H](O)CN2CCc3cc(OC)c(OC)cc3C2)c1,IC50,[1],40.4 µM
same,Activity,[2],Active
N#Cc1cn(C[C@H](O)CN2CCc3ccccc3C2)c2ccccc12,IC50,[1],2.1 µM
same,Activity,[2],Active
COc1ccc2c(ccn2C[C@H](O)CN2CCc3cc(Br)ccc3C2)c1,IC50,[1],51.3 µM
same,Activity,[2],Active
Cc1ccc2c(ccn2C[C@H](O)CN2CCc3ccccc3C2)c1,IC50,[1],0.62 µM
same,Activity,[2],Active
CC(=O)c1cn(C[C@H](O)CN2CCc3ccccc3C2)c2ccccc12,IC50,[1],2.52 µM
same,Activity,[2],Active
COc1ccc2c(c1)CCN(C[C@@H](O)Cn1ccc3cc(OC)ccc31)C2,IC50,[1],36.3 µM
same,Activity,[2],Active
N#CCc1cn(C[C@H](O)CN2CCc3ccccc3C2)c2ccccc12,IC50,[1],4.12 µM
same,Activity,[2],Active
O[C@H](CN1CCc2ccccc2C1)Cn1ccc2cc(Cl)ccc21,IC50,[1],8.2 µM
same,Activity,[2],Active
COc1ccc2c(ccn2C[C@H](O)CN2CCc3ccccc3C2C)c1 (stereo not given in full),IC50,[1],14.8 µM
same,Activity,[2],Active
O[C@H](CN1CCc2ccccc2C1)Cn1ccc2ccccc21,IC50,[1],0.85 µM
same,Activity,[2],Active
Cc1cc2ccccc2n1C[C@H](O)CN1CCc2ccccc2C1,IC50,[1],1.3 µM
same,Activity,[2],Active
COc1ccc2c(ccn2C[C@H](O)CN2CCc3cc(O)ccc3C2)c1,IC50,[1],0.12 µM
same,Activity,[2],Active
CC1c2ccccc2CCN1C[C@@H](O)Cn1ccc2ccc(Br)cc21 (stereo not given in full),Activity,[2],Active
O[C@H](CN1CCc2ccc(Br)cc2C1)Cn1ccc2ccc(Br)cc21,IC50,[1],3.25 µM
same,Activity,[2],Active
Cc1cc2cc(F)ccc2n1C[C@H](O)CN1CCc2ccccc2C1,IC50,[1],22.5 µM
same,Activity,[2],Active
O[C@H](CN1CCc2ccccc2C1)Cn1ccc2c(F)cccc21,IC50,[1],1.7 µM
same,Activity,[2],Active
O=C(NC[C@H](O)CN1CCc2ccccc2C1)c1ccc2c(c1)CCN(C(=O)c1ccc(Br)cc1)C2,AUC(0-t) at 24 h,[8],223 ng·h/mL
same,IC50,[1],0.008 µM
same,half-life,[9],2.31 h
same,half-life,[10],1.45 h
same,half-life,[11],0.173 h
same,AUC(0-inf),[12],233 ng·h/mL
same,Cmax,[13],77.1 ng/mL
same,Tmax,[14],0.3 h
COc1ccc2c(c1)CCN(C[C@@H](O)Cn1ccc3ccc(Br)cc31)C2,IC50,[1],31.8 µM
same,Activity,[2],Active
Cc1cccc2c1ccn2C[C@H](O)CN1CCc2ccccc2C1,IC50,[1],1.8 µM
same,Activity,[2],Active
COc1ccc2c(ccn2C[C@H](O)CN2CCc3ccc(Br)cc3C2)c1,IC50,[1],33.2 µM
same,Activity,[2],Active
O[C@H](CN1CCc2ccccc2C1)Cn1ccc2ccc(Cl)cc21,IC50,[1],0.53 µM
same,Activity,[2],Active
N#Cc1cccc2c1ccn2C[C@H](O)CN1CCc2ccccc2C1,IC50,[1],5.01 µM
same,Activity,[2],Active
COc1ccc2c(ccn2C[C@H](O)CN2CCc3ccccc3C2)c1,Activity,[15],Dose-Dependent Effect
same,IC50,[3],20.5 µM
same,AUC(0-t) at 24 h,[16],1250 ng·h/mL
same,AUC(0-t) at 24 h,[8],1970 ng·h/mL
same,AUC(0-inf),[17],1280 ng·h/mL
same,IC50,[1],0.31 µM
same,Activity,[18],68%
same,clearance,[19],26.7 mL/min/kg
same,IC50 at 24 h,[4],> 100 µM
same,Activity,[20],inactive
same,IC50,[5],19.1 µM
same,IC50,[6],27.7 µM
same,half-life,[9],6.7 h
same,half-life,[10],2.21 h
same,bioavailability,[21],31.4%
same,IC50,[7],23.6 µM
same,Activity,[22],Active
same,half-life,[11],0.342 h
same,IC50,[23],> 20 µM
same,Activity,[24],Dose-Dependent Effect
same,Vd,[25],9.3 L/kg
same,AUC(0-inf),[12],2180 ng·h/mL
same,Activity,[2],Active
same,half-life,[26],4.1 h
same,Activity,[27],Active
same,Cmax,[13],160 ng/mL
same,IC50,[28],> 20 µM
same,Tmax,[14],2.7 h
same,Activity,[29],Active
same,F,[30],100%
same,Cmax,[31],182 ng/mL
Oc1ccc2c(c1)CCN(C[C@@H](O)Cn1ccc3ccc(Br)cc31)C2,Activity,[15],Dose-Dependent Effect
same,IC50,[3],21.3 µM
same,Activity,[18],68%
same,IC50 at 24 h,[4],> 100 µM
same,Activity,[20],inactive
same,IC50,[5],14.2 µM
same,IC50,[6],58.1 µM
same,half-life,[10],0.363 h
same,IC50,[7],28.9 µM
same,Activity,[22],Active
same,half-life,[11],0.0783 h
same,IC50,[23],> 20 µM
same,Activity,[24],Dose-Dependent Effect
same,Activity,[2],Active
same,Activity,[27],Active
same,IC50,[28],10.2 µM
same,Activity,[29],Active
O[C@H](CN1CCc2cc(Br)ccc2C1)Cn1ccc2ccc(Br)cc21,IC50,[1],2.44 µM
same,Activity,[2],Active
COc1cccc2c1ccn2C[C@H](O)CN1CCc2ccccc2C1,IC50,[1],4.58 µM
same,Activity,[2],Active
